The record followed here is article PMC5748279, “Novel Antitubercular 6-Dialkylaminopyrimidine Carboxamides from Phenotypic Whole-Cell High Throughput Screening of a SoftFocus Library: Structure–Activity Relationship and Target Identification Studies” (Journal of Medicinal Chemistry, 2017).

Converted amounts (≈) assume the structure as drawn. “And” between values parts separate entries of the source, which are not always exact repeats. Identical values can stand only once.

Data set [1] relates to Mycobacterium tuberculosis (H37RvMa). The data set can be described thus: microbe, parasite or virus in culture. Particulars: for MIC: Mycobacterium tuberculosis, medium not stated; for MIC99 7H9/ADC / fold more potent in 7H9/ADC compared to 1: 7H9/ADC medium; for MIC99 GAST/Fe / fold more potent in GAST/Fe compared to 1: GAST/Fe medium; for fold more potent in 7H9/ADC compared to 1 / fold more potent in GAST/Fe compared to 1: versus compound 1. The format is cell-based.

Data set [2] deals with Mtb::gfp strain (H37RvMa::pMSP12GFP). The format is cell-based. Conditions: supplementary csv; for MIC99 7H9/ADC (values marked c: GFP strain based assay): 7H9/ADC medium; for MIC99 GAST/Fe (values marked c: GFP strain based assay): GAST/Fe medium.
Data set [3] can be described thus: Caseum binding using surrogate caseum.
A short description of a further data set: in vivo. Particulars: male, C57/BL6, mouse.
A further data set in a line: physchem. The format is physicochemical. How it is done: The kinetic solubility assay was performed using a miniaturised shake flask method. 10 mM stock […]
DMSO, and to spike (1:50) duplicate aqueous samples of FaSSIF (simulating fasting state biorelevant media, pH 6.5), with a final DMSO concentration of 2%. After shaking for 2 hours at 25 °C, the solutions were filtered and analysed by means of HPLC,DAD (Agilent 1200 Rapid Resolution HPLC with a diode array detector). Best fit calibration curves were constructed using the calibration standards, which were used to determine the aqueous samples’ solubility.13
4.2) Microsomal stability
The metabolic stability assay was performed in duplicate in a 96,well micro titre plate. The test compounds (0.1 µM) were incubated individually in mouse, rat and pooled human liver […]
the cofactor NADPH (1 mM). Reactions were quenched by adding 300 µL of ice cold acetonitrile containing internal standard (carbamazepine, 0.0236 µg/mL). Test compounds in the supernatant were analysed by means of LC,MS/MS (Agilent Rapid Resolution HPLC, AB SCIEX 4000 QTRAP MS) for the disappearance of parent compound. Metabolite searches were not conducted during the metabolic stability assay.14
4.3) Plasma protein binding (PPB) assay
The plasma protein binding assay was performed in a 96,well micro titre plate with pooled human plasma, spiked with test compound (5 µM). An aliquot was immediately removed and quenched using ice cold acetonitrile containing internal standard (carbamazepine, 0.0236 µg/mL), and placed in the freezer. This served as the total concentration sample. After pre,incubation (37 °C for 1 hour) duplicate aliquots of the spiked plasma were transferred to ultra,centrifugation tubes, […]

Data set [4] is classed as in vitro ADME. As for the experimental part:
and ultracentrifuged for 4 hours (42000 rpm, 37 °C, Beckman Optima L,80XP). Analyte concentration of all compounds and sample types were determined by means of LC,MS/MS (Agilent Rapid Resolution HPLC, AB SCIEX 4000 QTRAP MS).
4.4) Lipophilicity (LogD7.4)
The lipophilicity assay was performed in triplicate using a shake,flask procedure. 10 mM stock solutions of each test compound were used to spike (100 µM) a 1:1 mixture of phosphate buffer (pH 7.4) and n,octanol. The solutions were shaken vigorously (1500 rpm) on an orbital shaker for 3 hours at room temperature. Thereafter the samples were centrifuged in order to fully separate the two immiscible fluids. The samples were analysed by HPLC,DAD (Agilent 1200 Rapid Resolution HPLC with a diode array detector) and the amount of compound in the buffer and n, octanol were used to determine the partition coefficient, LogD7.4.15
4.5) Parallel Artificial Membrane Permeability Assay (PAMPA):
The PAMPA assay was performed in triplicate in 96,well MultiScreen Filter plates (Millipore, 0.4 µM PCTE Membrane). Membrane filters were pre,coated with 5% hexadecane in hexane and allowed to dry prior to the assay. Membrane integrity marker, Lucifer yellow was added to the apical wells of the pre,coated MultiScreen plate donor/drug solutions containing test compound.
Phosphate buffer (pH7.4) was added to the 96,well acceptor plate. 10 mM test compound was used to spike (1 µM) the donor buffer at physiologically relevant pH's (pH 4, 6.5 and 8), the donor plate slotted into the acceptor plate and incubated (4 hours at room temperature) with gentle shaking (40,50 rpm). Following the incubation, sample from the acceptor wells and theoretical equilibrium wells were transferred to the analysis plate and matrix matched with blank donor buffer. Acetonitrile containing internal standard (carbamazepine, 0.0236 µg/mL) was added to all samples and they were analysed by LC,MS/MS (Agilent Rapid Resolution HPLC, AB SCIEX 4500 MS). The normalised (analyte/internal) peak areas were used to calculate the apparent permeability (Papp). Membrane integrity was assessed by calculating the Papp of Lucifer Yellow […]
chemosensitivity. […]. Thus only viable cells […]
formazan. Formazan crystals are dissolved in DMSO. The test samples were tested in triplicate on […]
experiment. […] Emetine was used […]
as the reference drug in all experiments. The initial concentration of emetine was 100 µg/mL, […]
lowest being 0.001 µg/mL. […] The […]
the cell viability (data not shown).
GraphPad Prism v.4 software. […]
expressing the full length hERG channel. Single cell ionic currents were measured in the […]

Data set [5] addresses T1, BCG_3193 (Rv3169) (Mycobacterium bovis BCG, UniProt A0A1R3Y3B6). The data set can be described thus: biochemical. More on the design: species or system Mycobacterium bovis BCG extract. Conditions: bead competition in BCG extract.
Data set [6] deals with T1, BCG_3193 (Rv3169). The data set can be described thus: biochemical. The format is binding.
Another data set has as its system BCG_3827 (Rv3768). The format is binding, Mycobacterium bovis BCG.
Data set [7] has as its system PrecA-LUX reporter (genotoxic compounds). It counts as cell-based. Particulars: luminescence over 7 days, CIPRO control.
For data set [8], the system named is PiniB-LUX reporter (Mtb cell wall biosynthesis). It counts as cell-based. Conditions: luminescence over 7 days, INH control.
Data set [9] concerns Mycobacterium tuberculosis (H37RvMa). As to the kind of experiment: microbe, parasite or virus in culture. More on the design: MIC99 by standard broth microdilution against M. tuberculosis H37Rv. Conditions: read-out: MIC99 7H9/ADC (æM).

T1 sequence (A0A1R3Y3B6 1-374): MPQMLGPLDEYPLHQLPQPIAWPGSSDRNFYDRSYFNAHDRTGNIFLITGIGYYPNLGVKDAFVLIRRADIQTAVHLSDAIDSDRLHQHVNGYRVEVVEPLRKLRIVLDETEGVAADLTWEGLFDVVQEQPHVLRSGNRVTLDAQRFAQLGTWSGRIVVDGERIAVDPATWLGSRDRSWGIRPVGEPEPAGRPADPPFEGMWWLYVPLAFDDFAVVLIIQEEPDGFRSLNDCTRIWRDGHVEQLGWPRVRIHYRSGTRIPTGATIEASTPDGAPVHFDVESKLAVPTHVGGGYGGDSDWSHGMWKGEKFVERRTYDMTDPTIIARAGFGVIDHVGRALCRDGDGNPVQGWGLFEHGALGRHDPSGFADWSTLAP

As to `CN(Cc1ccc(C(F)(F)F)nc1)c1cc(C(=O)Nc2ccc(N3CCOCC3)cn2)ncn1` [Compound 46, 6-(Methyl((6-(trifluoromethyl)pyridin-3-yl)methyl)amino)-N-(5-morpholinopyridin-2-yl)pyrimidine-4-carboxamide], in data set [1], the MIC lay in the range of 2 to 3 µM (≈ 0.947 to 1.42 µg/mL).
On to `CN(Cc1cccnc1)c1cc(C(=O)Nc2ccccc2)ncn1` [Compound 19, 6-(Methyl(pyridin-3-ylmethyl)amino)-N-phenylpyrimidine-4-carboxamide], for which, in data set [2], the “MIC99 7H9/ADC (values marked c: GFP strain based assay)” value is 48c æM and the “MIC99 GAST/Fe (values marked c: GFP strain based assay)” value is reported as 37c æM.
Usually AUC(0-inf) stands for total exposure, with the tail of the curve extrapolated. What is called clearance is the rate of elimination divided by the concentration. A higher clearance goes with a high capacity for elimination. The half-life is the time needed for the level to fall by half in the phase considered. For orientation: solubility (kinetic) means solubility judged after dilution from a stock solution rather than from solid. In [3], `CN(Cc1ccc(F)cc1)c1cc(C(=O)Nc2nncs2)ncn1` [Compound 51, 6-((4-Fluorobenzyl)(methyl)amino)-N-(1,3,4-thiadiazol-2-yl)pyrimidine-4-carboxamide] had a caseum distribution unbound of 0.5%. In “in vivo” (iv, 5 mg/kg), this compound gave an AUC(0-inf) at 24 h of 22.1 µM·h, a clearance at 24 h of 11.1 mL/min/kg and a half-life at 24 h of 5.1 h. Further, in “in vivo” (po, 20 mg/kg), the AUC(0-inf) at 24 h is 17 µM·h and the half-life at 24 h was 4.4 h. Moreover, the kinetic solubility at 2 h in “physchem” (pH 7.4, pH 7.4) is more than 100 µM.
`CN1CCN(c2cccc(NC(=O)c3cc(N(C)Cc4ccc(F)cc4)ncn3)c2)CC1` [Compound 42, 6-((4-Fluorobenzyl)(methyl)amino)-N-(3-(4-methylpiperazin-1-yl)phenyl)pyrimidine-4-carboxamide]: the “MIC values dropping by fold” value in data set [1] (3-position versus 4-position N-methylpiperazine) is reported as 10- to 30 fold.
As a reminder, the IC50 is the concentration needed to halve the response being measured. Lower therefore signals greater potency in that assay. The compound `CN1CCN(c2ccc(NC(=O)c3cc(N(C)Cc4ccc(C(F)(F)F)cc4)ncn3)cc2)CC1` [Compound 40, 6-(Methyl(4-(trifluoromethyl)benzyl)amino)-N-(4-(4-methylpiperazin-1-yl)phenyl)pyrimidine-4-carboxamide] yielded a caseum distribution unbound in data set [3] of 0.1%. Besides, the “PAMPA log Papp” value in data set [4] is “–4.5”. Also, the IC50 on BCG_3193 (Rv3169) [5] (IC50, Experiment ID=X028553) was 1700 nM; at BCG_3193 (Rv3169) [5] (IC50, Experiment ID=X028554), 1500 nM; at BCG_3193 (Rv3169) [6] (IC50), 1100 nM; against BCG_3193 (Rv3169) [6] (pIC50), 1100 nM; with BCG_3827 (Rv3768) it was 10000 nM. Moreover, the AUC(0-inf) at 24 h in the data set “in vivo” (iv, 5 mg/kg) is 9 µM·h; in the data set “in vivo” (po, 20 mg/kg), 9.4 µM·h. Further, the half-life at 24 h was 10.3 h in “in vivo” (iv, 5 mg/kg) and 15.8 h in “in vivo” (po, 20 mg/kg). Moreover, the Hill on BCG_3193 (Rv3169) [6] is given as 1.62. For the same compound, the “binding of BCG_3193 to the compound beads in presence of free compound” value on BCG_3193 (Rv3169) [6] is given as “reduced binding”. Also, the Kd on BCG_3193 (Rv3169) [6] (apparent dissociation constant Kd^app for BCG_3193) was 610 nM and 690 nM; at BCG_3827 (Rv3768) (read-out: apparent dissociation constant Kd^app for BCG_3827) it was 2100 nM and 3800 nM. Besides, the “binding of BCG_3827 to the compound beads in presence of free compound” value in the data set on BCG_3827 (Rv3768) was “reduced binding”.
On to `CN(Cc1ccc(C(F)(F)F)cc1)c1cc(C(=O)NC2CCCCC2)ncn1` [Compound 34, N-Cyclohexyl-6-(methyl(4-(trifluoromethyl)benzyl)amino)pyrimidine-4-carboxamide], for which, in [2], the “MIC99 7H9/ADC (values marked c: GFP strain based assay)” value is more than 125c æM and the “MIC99 GAST/Fe (values marked c: GFP strain based assay)” value turned out to be 12c æM.
For “6-((4-Cyanobenzyl)(methyl)amino)-N-phenylpyrimidine-4-carboxamide [Compound 16]”, the “MIC99 7H9/ADC” value in data set [1] was more than 50 µM; in data set [1] (supplementary csv), >50 æM. The “MIC99 GAST/Fe” value in data set [1] is 20 µM; in data set [1] (supplementary csv) it was 20 æM. Besides, in the data set “physchem” (pH 7.4), the kinetic solubility at 2 h is less than 5 µM. The Solubility in “physchem” (supplementary csv) is <5 æM.
With `CN(Cc1ccc(C(F)(F)F)cc1)c1cc(C(=O)Nc2ccccc2)ncn1` [Compound 12, 6-(Methyl(4-(trifluoromethyl)benzyl)amino)-N-phenylpyrimidine-4-carboxamide], the PrecA-LUX reporter response result in [7] is “delayed (Day 3 onwards) induction of luminescence”. The compound further yielded a caseum distribution unbound in [3] of 0.1%. Moreover, the “PAMPA log Papp” value in [4] is on record as “–4.9”. In “in vivo” (iv, 5 mg/kg), the AUC(0-inf) at 24 h is 20.4 µM·h, the clearance at 24 h worked out at 11.3 mL/min/kg and the half-life at 24 h was 4.6 h. Moreover, in “in vivo” (po, 20 mg/kg), the AUC(0-inf) at 24 h was 22.2 µM·h and the half-life at 24 h was 8.7 h. Besides, the PiniB-LUX reporter response entry in [8] was “a weak, delayed response”.
As for `CN(Cc1ccc(C(F)(F)F)nc1)c1cc(C(=O)Nc2ccccc2)ncn1` [Compound 20, 6-(Methyl((6-(trifluoromethyl)pyridin-3-yl)methyl)amino)-N-phenylpyrimidine-4-carboxamide], the “PAMPA log Papp” value in data set [4] is given as “–3.8”. In the data set “in vivo” (iv, 5 mg/kg), this compound gave a total exposure AUC(0-inf) at 24 h of 19.6 µM·h and a clearance at 24 h of 11.2 mL/min/kg. Also, the AUC(0-inf) at 24 h in the data set “in vivo” (po, 20 mg/kg) was 33.3 µM·h.
With `CN(Cc1ccc(S(C)(=O)=O)cc1)c1cc(C(=O)Nc2ccccc2)ncn1` [Compound 17, 6-(Methyl(4-(methylsulfonyl)benzyl)amino)-N-phenylpyrimidine-4-carboxamide], in [2], the “MIC99 7H9/ADC (values marked c: GFP strain based assay)” value is on record as more than 125c æM and the “MIC99 GAST/Fe (values marked c: GFP strain based assay)” value is reported as more than 125c æM.
Turning to `CN(Cc1ccc(Cl)cc1)c1cc(C(=O)Nc2ccccc2)ncn1` [Compound 11, 6-((4-Chlorobenzyl)(methyl)amino)-N-phenylpyrimidine-4-carboxamide], in [1], the “fold more potent in 7H9/ADC compared to 1” value is given as not below 4 fold and the “fold more potent in GAST/Fe compared to 1” value was not below 2 fold.
For the compound “6-(Benzyloxy)-N-phenylpyrimidine-4-carboxamide [Compound 4]”, the “MIC99 7H9/ADC” value in data set [1] was more than 160 µM; in [1] (supplementary csv) it was >160 æM.
For the compound `O=C(Nc1ccccc1)c1cc(OCC2CCCCC2)ncn1` [compound 4], the MIC99 in [9] was more than 160 µM.
`CN(Cc1ccc(F)cc1)c1cc(C(=O)Nc2ccc(N3CCOCC3)cc2)ncn1` [Compound 45, 6-((4-Fluorobenzyl)(methyl)amino)-N-(4-morpholinophenyl)pyrimidine-4-carboxamide]: the MIC in data set [1] is less than 5 µM.
`COc1ccc(NC(=O)c2cc(N(C)Cc3cccc(F)c3)ncn2)cc1` [Compound 13, 6-((3-Fluorobenzyl)(methyl)amino)-N-(4-methoxyphenyl)pyrimidine-4-carboxamide]: in data set [7], the PrecA-LUX reporter response result is reported as “delayed (Day 3 onwards) induction of luminescence”. Also, in [8], the PiniB-LUX reporter response result is given as “a weak, delayed response”.
`CN(Cc1ccc(F)cc1)c1cc(C(=O)Nc2ccccc2)ncn1` [Compound 10, 6-((4-Fluorobenzyl)(methyl)amino)-N-phenylpyrimidine-4-carboxamide]: in data set [1], the “fold more potent in 7H9/ADC compared to 1” value is not below 4 fold and the “fold more potent in GAST/Fe compared to 1” value is reported as not below 2 fold.
